We go through four compounds from patent US20150174034A1, “TYROSINASE INHIBITORS” (Avon Products, Inc., priority 2013, published 2015).

For assay [1], the system named is B16 mouse melanoma cells. As to the kind of experiment: Inhibition of melanin production, B16 melanoma cell assay. The format is cell-based. To be noted: 4 days, alpha MSH, normalized to cell viability. As to the method:
The effects of various test compounds on melanin levels were determined by performing assays using B16 melanoma cells. These cells are known to constitutively produce melanin and are a commonly utilized and accepted model system for monitoring the inhibition of melanin synthesis. The B16 mouse melanoma cells were seeded (ATCC, cat. #: CRL-6475) into 96-well tissue culture-treated plates (BD Falcon) and treated with test actives or controls in phenol red free DMEM (Mediatech; cat. #: 17-205-CV) with 2 nanogram/ml of alpha MSH (Fluka; cat #:63605). The cells were examined for their ability to modulate pigment formation. […] Tests were performed in 6 replicates each. Following the treatment period (4 days), the level of pigment produced or melanin synthesized was quantified by reading the absorbance at 540 nm using a standard microplate reader (Tecan Group Ltd.).
After quantifying the amount of melanin, cell viability was determined using the MTT conversion method. The MTT conversion method measures the reduction of the MTT dye from a yellow colored, water-soluble, tetrazolium salt to a bluish-purple colored insoluble formazan precipitate by NAD(P)H-dependent microsomal dehydrogenase enzymes, which only function in viable cells. The intensity of the blue color is indicative of cell viability. After quantifying the amount of melanin pigment produced, the cells were exposed to MTT dye solution (1 mg/ml) for two to three hours. Formazan material was solubilized with reagent alcohol (95% ethanol: 5% isopropanol) and shaken on an orbital shaker for 15-30 minutes. MTT dye uptake and conversion by viable cells were determined by measuring the extracted formazan at 570 nm using a microplate reader. Total pigmentation was calculated, normalized to cell viability values and expressed as the average percent change in melanin activity relative to control of the six experiments performed.
The assay data in Table 2 uses the following scale: 0: <10% decrease; +: between […] decrease; ++: 31-50% decrease; +++: between 51-70% decrease; ++++: >71% decrease; C=cytotoxic

For assay [2], the system named is Human Epidermal Melanocytes, neonatal, darkly pigmented donor (HEMn-DP). As to the kind of experiment: Human primary melanocyte pigmentation assay (HEMn-DP). The format is cell-based. To be noted: 5 days, normalized to cell viability. As to the method:
The effects of various test compounds on melanin productions were determined by performing assays using Human Epidermal Melanocytes, neonatal, darkly pigmented donor (HEMn-DP). The HEMn-DP cells were seeded (Invitrogen; cat. #: C-202-5C) into 6-well tissue culture-treated plates (BD Falcon) and treated with test actives or controls in Medium 254 (Invitrogen; cat. #: M-254-500) supplemented with 1% HMSG (Invitrogen; cat. #: S-002-5) and 1% P/S. The cells were examined for their ability to modulate pigment formation. […] Tests were performed in triplicates each. Following the treatment period (5 days), supernatants were aspirated. The melanin was extracted with 0.5 ml of 2N NaOH for 30 minutes at 80° C. The level of melanin synthesized within the cells was quantified by reading the absorbance at 405 nm using a standard microplate reader (Tecan Group Ltd.).
The cell viability was determined using the MTT conversion method. The MTT conversion method measures the reduction of the MTT dye from a yellow colored, water-soluble, tetrazolium salt to a bluish-purple colored insoluble formazan precipitate by NAD(P)H-dependent microsomal dehydrogenase enzymes, which only function in viable cells. The intensity of the blue color is indicative of cell viability. […] The cells were then exposed to MTT dye solution (1 mg/ml) for two to three hours. Formazan material was solubilized with reagent alcohol (95% ethanol: 5% isopropanol) and shaken on an orbital shaker for 15-30 minutes. MTT dye uptake and conversion by viable cells were determined by measuring the extracted formazan at 570 nm using a microplate reader. Total pigmentation was calculated and normalized to cell viability values. The average percent change in melanin relative to control of the triplicates from the Human Primary Melanocyte Pigmentation Assay (HEMn-DP Pigmentation) is reported in the Table 3 in accordance with the scale: 0: <10% decrease in pigmentation level; +: between 11-30% decrease; ++: between 31-50% decrease; +++: between 51-70% decrease; ++++: >71% decrease; C=cytotoxic.

Assay [3] deals with MELANODERM (MEL-300-B) human skin model. Nature of the assay: 3D skin equivalent tissue pigmentation assay (MELANODERM). The format is cell-based. As to conditions: topical, tissues collected Day 11. As to the method:
The effect of the tyrosinase inhibitors on melanin levels was investigated using a MELANODERM™ (MEL-300-B, MatTek Corp., Ashland, Mass.) human skin model. MELANODERM™ is a viable reconstituted three-dimensional human skin equivalent containing melanocytes derived from African-American donors. Tissues were maintained in culture medium EPI-100-NMM-113 at 37° C. as recommended by the manufacturer.
10 μl of the solution was applied topically to the MELANODERM™ tissue while culture medium was added on days 1, 2, 4, 7, and 9. Control tissues were treated with the 10 μl of corresponding vehicle only. On Day 11, tissues were collected and homogenized in a buffer containing 1% SDS, 50 mM EDTA, and 10 mM Tris, pH 6.8. To each homogenate, protease K (5 mg/ml) was added and incubated overnight at 45° C. Additional protease K was added and incubated for 4 hours at 45° C., followed by the addition of 0.5M sodium carbonate and 30% H2O2 and incubation at 80° C. for 30 minutes. The samples were cooled down to room temperature, and extracted with chloroform/methanol (2:1). After centrifugation at 10,000 g for 10 minutes, absorbance of the top phase was measured at 450 nm. Percent change in melanin levels in treated tissue was calculated relative to control. The average percent change in melanin relative to control of the three tissues is reported in the Table 4 in accordance with the scale: 0: <7% decrease in pigmentation level; +: between 8-14% decrease; ++: between 15-20% decrease; +++: between 21-30% decrease; ++++: >31% decrease; C=cytotoxic

The test system of assay [4] is Mushroom tyrosinase. Nature of the assay: Mushroom tyrosinase assay. As to conditions: L-Tyrosine substrate, 25° C., 30 min. The format is biochemical. As for the experimental part:
Mushroom tyrosinase and L-Tyrosine were obtained from Sigma-Aldrich, Inc. (St. Louis, Mo.). The enzyme activity was measured in buffer containing 100 mM phosphate buffer pH 6.8, 5% absolute ethanol, 2 micrograms/milliliter mushroom tyrosinase, and 0.2 mg/ml L-Tyrosine. The reaction (conversion of L-Tyrosine to DOPAchrome) was conducted in triplicates at 25° C. for 30 min, and absorbance was then measured at 492 nm. Kojic Acid was used as a positive control inhibitor in these assays. Percent change in tyrosinase activity relative to vehicle control was calculated.

Regarding `C/C(=N/NC(=S)NCC1CCCO1)c1ccc2c(c1)OCO2` (centres unmarked) [AV1221], the entries for the “B16 Assay Pigmentation Decrease (percent change in melanin compared to DMSO vehicle control)” value in assay [1] (concentration 0.0001%) and in assay [1] (concentration 0.001%) were “++ (31-50% decrease)” and “++++ (>71% decrease)”, respectively. Also, the “Human primary melanocyte pigmentation assay (change in melanin compared to DMSO vehicle control)” value is “+ (between 11-30% decrease)” in assay [2] (concentration 0.0001%) and “++++ (>71% decrease)” in assay [2] (concentration 0.001%). The figures for the “3D Tissue Pigmentation Assay (change in melanin compared to vehicle control)” value in assay [3] (concentration 0.05%) and in assay [3] (concentration 0.1%) were “+++ (between 21-30% decrease)” and “++ (between 15-20% decrease)”, respectively.

For `C/C(=N/NC(=S)NC(C)C)c1ccc2c(c1)OCO2` [AV2043], the “B16 Assay Pigmentation Decrease (percent change in melanin compared to DMSO vehicle control)” value in assay [1] (concentration 0.0001%) is “++ (31-50% decrease)”. Besides, the “Human primary melanocyte pigmentation assay (change in melanin compared to DMSO vehicle control)” value in assay [2] (concentration 0.0001%) is “+ (between 11-30% decrease)”; in assay [2] (concentration 0.001%) it was “++ (between 31-50% decrease)”. Also, the “3D Tissue Pigmentation Assay (change in melanin compared to vehicle control)” value in assay [3] (concentration 0.05%) and in assay [3] (concentration 0.1%) was “+++ (between 21-30% decrease)” in each case.

Turning to `Cc1ccc(/C=N/NC(=S)NCC2CCCO2)s1` (centres unmarked) [AV3793], the results for the “B16 Assay Pigmentation Decrease (percent change in melanin compared to DMSO vehicle control)” value in assay [1] (concentration 0.0001%) and in assay [1] (concentration 0.001%) were “+ (between 20-30% decrease)” and “+++ (between 51-70% decrease)”, respectively. In addition, the “Human primary melanocyte pigmentation assay (change in melanin compared to DMSO vehicle control)” value was 0 (<10% decrease in pigmentation level) in assay [2] (concentration 0.0001%) and “+++ (between 51-70% decrease)” in assay [2] (concentration 0.001%). For the same compound, the “3D Tissue Pigmentation Assay (change in melanin compared to vehicle control)” value is “++ (between 15-20% decrease)” in assay [3] (concentration 0.05%) and “+++ (between 21-30% decrease)” in assay [3] (concentration 0.1%).

Regarding `Oc1ccc(C=NNC(=S)NCC2CCCO2)c(O)c1` (centres unmarked) [AV6989], the results for the “Tyrosinase Inhibition (percent change in tyrosinase activity compared to DMSO vehicle control)” value in assay [4] (concentration 0.001%) and in assay [4] (concentration 0.01%) were −36% and −75%, respectively. Also, the “B16 Assay Pigmentation Decrease (percent change in melanin compared to DMSO vehicle control)” value in assay [1] (concentration 0.0001%) was −79%.
